Assay results: US20250145571A1, “AMINO ACID PRODRUGS OF NICORANDIL” (Unicycive Therapeutics, Inc., priority 2023, published 2025)
Read-outs that look alike come from different tables or passages of the source. Blank lines part the entries; values can stand above or below the compound they belong to.

How the values were obtained:
[1] = Intestinal microsomal stability, human; type: in vitro ADME; conditions: for half-life at 1 µM / microsomal CLint at 1 µM: human intestinal microsomes 1 mg/mL protein, NADPH, 37° C.; for microsomal CLint at 1 µM: read-out: CLint (μL/min/mg protein)
Procedure: (§1) Each test compound and assay control (final concentration of […]) were incubated with intestinal microsomes (final protein concentration of 1 mg/mL) from rats, dogs or humans at 37° C. in the presence of NADPH for 0.5, 5, 10, 15, 30 and 60 minutes. The reaction was terminated by adding ice-cold acetonitrile containing internal standard (cetirizine/tolbutamide/telmisartan) at each time point following incubation. Samples were then centrifuged at 4000 rpm for 10 minutes and the supernatant was analyzed by LC-MS/MS. The in vitro half-life (t1/2) and intrinsic clearance (CLint) were calculated for the test compounds and the assay control.

[2] = Intestinal microsomal stability, dog; type: in vitro ADME; conditions: for half-life at 1 µM / microsomal CLint at 1 µM: dog intestinal microsomes 1 mg/mL protein, NADPH, 37° C.; for microsomal CLint at 1 µM: read-out: CLint (μL/min/mg protein)
Procedure: as §1

[3] = Plasma stability, rat plasma; type: in vitro ADME; conditions: for half-life at 1 µM / % PCR (at 60 minutes): 37° C., 1 μM; for % PCR (at 60 minutes): parent compound remaining at 60 minutes
Procedure: (§2) Each test compound and assay control (final concentration of 1 μM) were incubated with human plasma or rat plasma at 37° C. for 0.5, 5, 30 and 60 minutes. The reaction was quenched with ice-cold acetonitrile containing internal standard (cetirizine/tolbutamide/telmisartan) following incubation.

[4] = Plasma stability, human plasma; type: in vitro ADME; conditions: for half-life at 1 µM / % PCR (at 60 minutes): 37° C., 1 μM; for % PCR (at 60 minutes): parent compound remaining at 60 minutes
Procedure: as §2

[5] = Pharmacokinetic study in rats, single oral dose; conditions: rat, 0.25% sodium CMC
[6] = Liver microsomal stability, rat; type: in vitro ADME; conditions: for Hepatic Extraction Ratio / Predicted Hepatic CL: rat liver microsomes 0.5 mg/mL, 1 μM, NADPH
Procedure: (§3) Each test compound and assay control (final concentration of 1 μM) were incubated with liver microsomes (final protein concentration of 0.5 mg/mL) from rats, dogs or humans at 37° C. in the presence of NADPH for 0.5, 5, 10, 15, 30 and 60 min. The reaction was terminated by adding ice-cold acetonitrile containing internal standard at each time point following incubation. The samples were then centrifuged at 4000 rpm for 10 minutes and the supernatant was analyzed by LC-MS/MS. The predicted hepatic clearance and the hepatic extraction ratio were calculated for the test compounds and the assay control.

[7] = Intestinal microsomal stability, rat; type: in vitro ADME; conditions: for half-life at 1 µM / microsomal CLint at 1 µM: rat intestinal microsomes 1 mg/mL protein, NADPH, 37° C.; for microsomal CLint at 1 µM: read-out: CLint (μL/min/mg protein)
Procedure: as §1

[8] = Liver microsomal stability, human; type: in vitro ADME; conditions: for Hepatic Extraction Ratio / Predicted Hepatic CL: human liver microsomes 0.5 mg/mL, 1 μM, NADPH
Procedure: as §3

[9] = Liver microsomal stability, dog; type: in vitro ADME; conditions: for Hepatic Extraction Ratio / Predicted Hepatic CL: dog liver microsomes 0.5 mg/mL, 1 μM, NADPH
Procedure: as §3

[10] = rat; for AUClast / Cmax / F (%) / Tmax / t1/2 / AUClast (ng * h/mL) / Cmax (ng/mL) / Median Tmax: male, Sprague-Dawley; for AUClast / Cmax / F (%) / Tmax / t1/2 / AUClast (ng * h/mL) / Cmax (ng/mL) / Median Tmax / increase in AUC from 3 mg/kg to 14 mg/kg (in words) / release of nicorandil in vivo (in words): po
[11] = compared to nitrate salt of compound 8

SMILES: C[C@H](NC(=O)OC[n+]1cccc(C(=O)NCCO[N+](=O)[O-])c1)C1CCCCC1.O=[N+]([O-])[O-] [reference compound]
half-life at 1 µM [1]: > 60 min | microsomal CLint at 1 µM [1]: 9 µL/min/mg | half-life at 1 µM [2]: > 60 min | microsomal CLint at 1 µM [2]: < 6 µL/min/mg | half-life at 1 µM [3]: 38.2 min | % PCR (at 60 minutes) [3]: 36.2% | half-life at 1 µM [4]: 31.2 min | % PCR (at 60 minutes) [4]: 28.7% | release of nicorandil in vivo (in words) [5]: release nicorandil in vivo | Hepatic Extraction Ratio [6]: > 0.89 | Predicted Hepatic CL [6]: > 49 mL/min/kg | half-life at 1 µM [7]: > 60 min | microsomal CLint at 1 µM [7]: < 6 µL/min/mg | Hepatic Extraction Ratio [8]: 0.71 | Predicted Hepatic CL [8]: 15 mL/min/kg | Hepatic Extraction Ratio [9]: 0.84 | Predicted Hepatic CL [9]: 26 mL/min/kg

SMILES: CCCCCCCCCCCC(=O)OC[n+]1cccc(C(=O)NCCO[N+](=O)[O-])c1.[Cl-] [Compound 10]
half-life at 1 µM [1]: 24 min | microsomal CLint at 1 µM [1]: 29 µL/min/mg | clearance in intestinal microsomes (in words) ([1]; human intestinal microsomes, compared to nitrate salt of compound 8 and compounds 11 and 13): high clearance | half-life at 1 µM [2]: 47 min | microsomal CLint at 1 µM [2]: 15 µL/min/mg | clearance in intestinal microsomes (in words) ([2]; dog intestinal microsomes, compared to nitrate salt of compound 8 and compounds 11 and 13): high clearance | half-life at 1 µM [3]: 1.59 min | % PCR (at 60 minutes) [3]: 0% | release in plasma (in words) [3, 11]: rapidly released | half-life at 1 µM [4]: 1.23 min | % PCR (at 60 minutes) [4]: 0% | release in plasma (in words) [4, 11]: rapidly released | AUClast ([10]; in vivo, 3 mg/kg): 5513 ng·h/mL | Cmax ([10]; in vivo, 3 mg/kg): 2226 ng/mL | F (%) ([10]; in vivo, 3 mg/kg): 67% | Tmax ([10]; in vivo, 3 mg/kg): 30 min | t1/2 ([10]; in vivo, 3 mg/kg): 4.07 h | AUClast (ng * h/mL) ([10]; in vivo, 3 mg/kg, pH 4.5): 26,838 ng * h/mL | Cmax (ng/mL) ([10]; in vivo, 3 mg/kg, pH 4.5): 12,446 ng/mL | Median Tmax ([10]; in vivo, 3 mg/kg, pH 4.5): 15 min | AUClast (ng * h/mL) ([10]; in vivo, 14 mg/kg): 36,526 ng * h/mL | Cmax ([10]; in vivo, 14 mg/kg): 6297 ng/mL | F (%) ([10]; in vivo, 14 mg/kg): 97% | Tmax ([10]; in vivo, 14 mg/kg): 240 min | t1/2 ([10]; in vivo, 14 mg/kg): 2.74 h | oral bioavailability of nicorandil after oral dosing (in words) ([10]; in vivo): high | increase in AUC from 3 mg/kg to 14 mg/kg (in words) ([10]; in vivo): more than dose proportional | release of nicorandil in vivo (in words) [10]: release nicorandil in vivo | Hepatic Extraction Ratio [6]: 0.84 | Predicted Hepatic CL [6]: 46 mL/min/kg | stability in liver microsomes (in words) ([6]; rat liver microsomes, compared to nitrate salt of compound 8): unstable | half-life at 1 µM [7]: 26 min | microsomal CLint at 1 µM [7]: 27 µL/min/mg | clearance in intestinal microsomes (in words) ([7]; rat intestinal microsomes, compared to nitrate salt of compound 8 and compounds 11 and 13): high clearance | Hepatic Extraction Ratio [8]: 0.90 | Predicted Hepatic CL [8]: 19 mL/min/kg | stability in liver microsomes (in words) ([8]; human liver microsomes, compared to nitrate salt of compound 8): unstable | Hepatic Extraction Ratio [9]: 1.0 | Predicted Hepatic CL [9]: 4 mL/min/kg | stability in liver microsomes (in words) ([9]; dog liver microsomes, compared to nitrate salt of compound 8): unstable

SMILES: O=C(NCCO[N+](=O)[O-])c1ccc[n+](COC(=O)N2CCCC2C(=O)O)c1.[Cl-] (stereo not drawn) [Compound 13]
half-life at 1 µM [1]: > 60 min | microsomal CLint at 1 µM [1]: < 6 µL/min/mg | half-life at 1 µM [2]: > 60 min | microsomal CLint at 1 µM [2]: < 6 µL/min/mg | half-life at 1 µM [7]: > 60 min | microsomal CLint at 1 µM [7]: < 6 µL/min/mg

SMILES: Cc1oc(=O)oc1C[n+]1cccc(C(=O)NCCO[N+](=O)[O-])c1.[Cl-] [Compound 12]
AUClast ([10]; in vivo, 3 mg/kg, pH 4.5): 8893 ng·h/mL | Cmax ([10]; in vivo, 3 mg/kg, pH 4.5): 4065 ng/mL | Median Tmax ([10]; in vivo, 3 mg/kg, pH 4.5): 30 min

SMILES: CCOC(=O)[C@H](CCc1ccccc1)N[C@@H](C)C(=O)N1CCC[C@H]1C(=O)O [Enalapril]
half-life at 1 µM [3]: 18.9 min | % PCR (at 60 minutes) [3]: 11.2%

SMILES: CCC(C)(C)C(=O)OC[n+]1cccc(C(=O)NCCO[N+](=O)[O-])c1.[Cl-] [Compound 11]
half-life at 1 µM [1]: > 60 min | microsomal CLint at 1 µM [1]: < 6 µL/min/mg | half-life at 1 µM [2]: > 60 min | microsomal CLint at 1 µM [2]: 9 µL/min/mg | AUClast ([10]; in vivo, 3 mg/kg): 2289 ng·h/mL | Cmax ([10]; in vivo, 3 mg/kg): 1171 ng/mL | F (%) ([10]; in vivo, 3 mg/kg): 28% | Tmax ([10]; in vivo, 3 mg/kg): 15 min | AUClast (ng * h/mL) ([10]; in vivo, 3 mg/kg, pH 4.5): 22,632 ng * h/mL | Cmax (ng/mL) ([10]; in vivo, 3 mg/kg, pH 4.5): 15,223 ng/mL | Median Tmax ([10]; in vivo, 3 mg/kg, pH 4.5): 15 min | AUClast ([10]; in vivo, 14 mg/kg): 27422 ng·h/mL | Cmax ([10]; in vivo, 14 mg/kg): 6245 ng/mL | F (%) ([10]; in vivo, 14 mg/kg): 72% | Tmax ([10]; in vivo, 14 mg/kg): 15 min | increase in AUC from 3 mg/kg to 14 mg/kg (in words) ([10]; in vivo): more than dose proportional | release of nicorandil in vivo (in words) [10]: release nicorandil in vivo | half-life at 1 µM [7]: > 60 min | microsomal CLint at 1 µM [7]: 8 µL/min/mg

More lines, now with the values ahead:

half-life at 1 µM [4]: 21.3 min | % PCR (at 60 minutes) [4]: 9.2%
SMILES: CC(C)[N+](C)(CCOC(=O)C1c2ccccc2Oc2ccccc21)C(C)C [Propantheline Bromide]

half-life at 1 µM [3]: > 60 min | % PCR (at 60 minutes) [3]: 114% | half-life at 1 µM [4]: > 60 min | % PCR (at 60 minutes) [4]: 109%
SMILES: O=C(NCCO[N+](=O)[O-])c1cccnc1 [Nicorandil]
